Assay results reported in patent US20200129513A1, “COMPOSITIONS AND METHODS FOR TREATING HEMATOLOGIC MALIGNANCIES” (UNIVERSITY OF ROCHESTER, priority 2018, published 2020).
pIC50: −log10 of the molar value. Where two headings read alike, the source gives them in different places.

What was measured:
CLL patient cells [1] = assay: CLL cell death, CellTox Green Cytotoxicity Assay; assay type: cell-based; details: Homo sapiens, 48 hours culture, FIG. 3, read-out: IC50, induction of CLL cell death
From the text: The common off-target with the best binding was ERRB2 in the EGFR family of receptors. Afatinib (an irreversible inhibitor that covalently binds to the EGFR family of receptors (including ERBB2) active tyrosine kinase domain ATP-binding site, a similar mechanism to that of the BTK inhibitors) was chosen as an example EGFR family inhibitor to test this hypothesis. […] Media is RPMI1640 (Cellgro, Corning) supplemented with penicillin, streptomycin, L-glutamine (Gibco, ThermoFisher Scientific, Waltham, Mass.), and 10% heat-inactivated fetal bovine serum (Sigma-Aldrich, St. Louis, Mo.). After cell culture, viability was measured by Cell Titer-Blue Cell Viability Assay (Promega, Madison, Wis.) according to manufacturer's directions. Non-viable cells produce less fluorescence. Measurements were done in triplicate for each concentration. Fluorescence was measured on a BioTek Synergy2 96-well plate reader (BioTek Instruments, Winooski, Vt.). Data was analysed using Prism6 software (GraphPad Software, La Jolla, Calif.) and dose curve was generated using 4PL fit. […] To test that an EGFR family inhibitor not only reduces CLL cell viability, but also induces cell death in vitro, cytotoxicity was measured by CellTox Green Cytotoxicity Assay (Promega). Dead cells produce more fluorescence in this assay. […] Fluorescence was measured on a BioTek Synergy2 96-well plate reader (BioTek Instruments). […]

[2] = tested on: primary AML suspension cells; assay: AML cell viability, Cell Titer-Glo 2.0 Assay; assay type: cell-based, human; details: two different AML patient samples, 30 hours culture, Cell Titer-Glo 2.0, FIG. 6, read-out: IC50, reduction of AML cell viability
Description: To test this, primary AML suspension cells were treated in vitro with afatinib. Cell viability was measured by Cell Titer-Glo 2.0 Assay (Promega) in triplicate for each concentration. Two different AML patient cells (1×10^5 cells/100 μL media) were cultured for 30 hours in clear 96-well flat bottom tissue culture plates (Costar, Corning) with serial drug dilutions (100 μM afatinib (LC Laboratories) serially diluted 3-fold ending at ˜0.01 μM). Media is RPMI1640 (Cellgro, Corning) supplemented with penicillin, streptomycin, L-glutamine (Gibco, ThermoFisher Scientific), and 10% heat-inactivated fetal bovine serum (Sigma-Aldrich). After cell culture, viability was assayed according to manufacturer's directions. Luminescence was measured on a BioTek Synergy2 96-well plate reader (BioTek Instruments). Data was analysed using Prism6 software (GraphPad Software) and dose curve was generated using 4PL fit.

CA46 cell line [3] = assay: NHL p53 mutated cell line death, CellTox Green Cytotoxicity Assay; assay type: cell-based; details: Homo sapiens, CA46, 54 hours culture, FIG. 10, read-out: IC50, induction of cell death of p53 mutated NHL cell line
CLL patient cells [4] = assay: CLL cell viability, Cell Titer-Blue Cell Viability Assay; assay type: cell-based; details: Homo sapiens, 48 hours culture, FIG. 1, read-out: IC50, reduction of CLL cell viability
From the text: The common off-target with the best binding was ERRB2 in the EGFR family of receptors. Afatinib (an irreversible inhibitor that covalently binds to the EGFR family of receptors (including ERBB2) active tyrosine kinase domain ATP-binding site, a similar mechanism to that of the BTK inhibitors) was chosen as an example EGFR family inhibitor to test this hypothesis. […] Media is RPMI1640 (Cellgro, Corning) supplemented with penicillin, streptomycin, L-glutamine (Gibco, ThermoFisher Scientific, Waltham, Mass.), and 10% heat-inactivated fetal bovine serum (Sigma-Aldrich, St. Louis, Mo.). After cell culture, viability was measured by Cell Titer-Blue Cell Viability Assay (Promega, Madison, Wis.) according to manufacturer's directions. Non-viable cells produce less fluorescence. Measurements were done in triplicate for each concentration. Fluorescence was measured on a BioTek Synergy2 96-well plate reader (BioTek Instruments, Winooski, Vt.). Data was analysed using Prism6 software (GraphPad Software, La Jolla, Calif.) and dose curve was generated using 4PL fit. Afatinib reduces CLL cell viability in a dose dependent manner (IC50 0.4 μM) as shown in FIG. 1 (all data points shown).

AML patient cells = assay: AML cell death, CellTox Green Cytotoxicity Assay; assay type: cell-based; details: Homo sapiens, one AML patient sample, 30 hours culture, FIG. 7, read-out: IC50, induction of AML cell death
CA46 cell line [5] = assay: NHL p53 mutated cell line viability, Cell Titer-Glo 2.0 Assay; assay type: cell-based; details: Homo sapiens; CA46 (BL-derived, p.R248Q p53), 54 hours culture, Cell Titer-Glo 2.0, FIG. 9; read-out: IC50, reduction of cell viability of p53 mutated NHL cell line
Description: Luminescence was measured on a BioTek Synergy2 96-well plate reader (BioTek Instruments). Data was analysed using Prism6 software (GraphPad Software) and dose curve was generated using 4PL fit.

CLL patient cells [6] = assay: CLL cell viability, Cell Titer-Glo 2.0 Assay; assay type: cell-based, human; details: for pIC50: Homo sapiens, CLL patient cells, 48 hours culture
Description: (§1) After cell culture, viability was assayed according to manufacturer's directions. Luminescence was measured on a BioTek Synergy2 96-well plate reader (BioTek Instruments). Data was analysed using Prism6 software (GraphPad Software) and dose curve was generated using 4PL fit.
as §1, with “Cell viability was measured by Cell Titer-Glo 2.0 Assay (Promega) in triplicate for each concentration. […] After” for “After”

CN(C)C/C=C/C(=O)Nc1cc2c(Nc3ccc(F)c(Cl)c3)ncnc2cc1O[C@H]1CCOC1 [Afatinib]
pIC50 (CLL patient cells [1]): 4.92
pIC50 ([2]; Homo sapiens, 30 h): 5.68
pIC50 [2]: 5.59
pIC50 (CA46 cell line [3]): 4.66
pIC50 (CLL patient cells [4]): 6.40
pIC50 (AML patient cells): 4.72
pIC50 (CA46 cell line [5]): 5.52
pIC50 (CLL patient cells [6]; read-out: IC50, reduction of CLL cell viability (afatinib vs ibrutinib comparison), Cell Titer-Glo 2.0, FIG. 4): 6.30
pIC50 (CLL patient cells [6]; Cell Titer-Glo 2.0, FIG. 2, read-out: IC50, reduction of CLL cell viability): 6.52
fold lower concentration than ibrutinib for reduction of CLL cell viability (CLL patient cells [6]; ratio of IC50 values, FIG. 4): 20 fold
